Here are results for four compounds from ChEMBL document CHEMBL3991601, “The target landscape of clinical kinase drugs” (Science, 2017).

For test [1], the target named is T1, Uncharacterized protein FLJ45252 (Homo sapiens, UniProt Q6ZSR9).
T1 sequence (Q6ZSR9 whole entry): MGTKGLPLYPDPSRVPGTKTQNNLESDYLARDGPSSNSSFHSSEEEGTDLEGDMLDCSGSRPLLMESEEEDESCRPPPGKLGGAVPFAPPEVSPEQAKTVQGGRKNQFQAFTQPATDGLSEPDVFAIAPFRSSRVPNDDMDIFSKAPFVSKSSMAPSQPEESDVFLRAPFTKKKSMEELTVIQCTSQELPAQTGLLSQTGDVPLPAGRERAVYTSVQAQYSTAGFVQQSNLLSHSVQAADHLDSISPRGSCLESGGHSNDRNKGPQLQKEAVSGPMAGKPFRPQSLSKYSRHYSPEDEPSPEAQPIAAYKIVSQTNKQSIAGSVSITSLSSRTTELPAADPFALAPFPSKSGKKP
The note with it: read-out: Kd apparent; k-562, colo 205, sk-n-be(2) and mv-4-11.

Test [2] has as its target Calcium/calmodulin-dependent protein kinase kinase 2 (Homo sapiens, UniProt Q96RR4).
Test [3] deals with T2, Adenine phosphoribosyltransferase (Homo sapiens, UniProt P07741).
T2 sequence (P07741 whole entry): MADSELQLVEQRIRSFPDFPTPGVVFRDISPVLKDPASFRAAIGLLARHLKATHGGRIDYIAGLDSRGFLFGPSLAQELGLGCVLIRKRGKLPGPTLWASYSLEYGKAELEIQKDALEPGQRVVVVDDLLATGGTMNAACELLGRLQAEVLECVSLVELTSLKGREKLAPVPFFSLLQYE

The target in test [4] is Mitogen-activated protein kinase 9 (Homo sapiens, UniProt P45984).
Test [5] addresses Tyrosine-protein kinase SYK (Homo sapiens, UniProt P43405).
In test [6] the target is Protein kinase C theta type (Homo sapiens, UniProt Q04759).
The target of test [7] is T3, ATP-dependent 6-phosphofructokinase, platelet type (Homo sapiens, UniProt Q01813).
T3 sequence (Q01813 whole entry): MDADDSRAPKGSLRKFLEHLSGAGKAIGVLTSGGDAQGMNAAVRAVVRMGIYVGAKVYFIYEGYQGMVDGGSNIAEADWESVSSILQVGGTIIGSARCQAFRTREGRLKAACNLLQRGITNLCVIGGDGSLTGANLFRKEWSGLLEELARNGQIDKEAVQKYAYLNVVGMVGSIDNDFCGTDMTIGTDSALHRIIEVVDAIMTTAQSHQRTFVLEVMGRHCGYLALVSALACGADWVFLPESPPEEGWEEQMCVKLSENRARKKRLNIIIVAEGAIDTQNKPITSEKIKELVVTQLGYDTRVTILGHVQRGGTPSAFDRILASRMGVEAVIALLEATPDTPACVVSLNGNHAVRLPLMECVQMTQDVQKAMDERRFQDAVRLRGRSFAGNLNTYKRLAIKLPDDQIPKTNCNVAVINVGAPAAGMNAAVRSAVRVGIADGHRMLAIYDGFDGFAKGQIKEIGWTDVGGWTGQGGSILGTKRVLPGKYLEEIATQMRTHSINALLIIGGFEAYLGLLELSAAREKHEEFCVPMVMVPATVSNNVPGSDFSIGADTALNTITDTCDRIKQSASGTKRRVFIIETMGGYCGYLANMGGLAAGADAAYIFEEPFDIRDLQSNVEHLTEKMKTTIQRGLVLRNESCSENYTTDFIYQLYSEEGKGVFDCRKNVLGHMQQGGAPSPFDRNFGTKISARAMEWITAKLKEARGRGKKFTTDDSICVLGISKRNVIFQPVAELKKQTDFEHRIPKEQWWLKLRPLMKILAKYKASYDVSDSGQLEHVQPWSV

Test [8] has as its target T4, Succinate--CoA ligase [ADP-forming] subunit beta, mitochondrial (Homo sapiens, UniProt Q9P2R7).
T4 sequence (Q9P2R7 whole entry): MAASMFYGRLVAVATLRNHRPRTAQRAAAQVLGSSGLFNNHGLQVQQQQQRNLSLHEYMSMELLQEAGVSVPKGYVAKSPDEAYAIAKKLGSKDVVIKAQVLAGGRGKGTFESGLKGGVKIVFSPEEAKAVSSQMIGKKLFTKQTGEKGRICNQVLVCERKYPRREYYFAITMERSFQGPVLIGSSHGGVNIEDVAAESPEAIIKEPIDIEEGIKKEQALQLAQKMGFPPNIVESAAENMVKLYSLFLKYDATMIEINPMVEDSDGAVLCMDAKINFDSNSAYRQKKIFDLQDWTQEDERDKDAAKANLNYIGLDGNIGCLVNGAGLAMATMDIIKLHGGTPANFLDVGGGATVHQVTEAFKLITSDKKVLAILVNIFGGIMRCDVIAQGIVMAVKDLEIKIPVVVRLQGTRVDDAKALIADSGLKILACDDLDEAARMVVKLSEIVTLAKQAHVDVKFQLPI

The next test deals with Wee1-like protein kinase (Homo sapiens, UniProt P30291).
In test [9] the target is T5, Delta(24)-sterol reductase (Homo sapiens, UniProt Q15392).
T5 sequence (Q15392 whole entry): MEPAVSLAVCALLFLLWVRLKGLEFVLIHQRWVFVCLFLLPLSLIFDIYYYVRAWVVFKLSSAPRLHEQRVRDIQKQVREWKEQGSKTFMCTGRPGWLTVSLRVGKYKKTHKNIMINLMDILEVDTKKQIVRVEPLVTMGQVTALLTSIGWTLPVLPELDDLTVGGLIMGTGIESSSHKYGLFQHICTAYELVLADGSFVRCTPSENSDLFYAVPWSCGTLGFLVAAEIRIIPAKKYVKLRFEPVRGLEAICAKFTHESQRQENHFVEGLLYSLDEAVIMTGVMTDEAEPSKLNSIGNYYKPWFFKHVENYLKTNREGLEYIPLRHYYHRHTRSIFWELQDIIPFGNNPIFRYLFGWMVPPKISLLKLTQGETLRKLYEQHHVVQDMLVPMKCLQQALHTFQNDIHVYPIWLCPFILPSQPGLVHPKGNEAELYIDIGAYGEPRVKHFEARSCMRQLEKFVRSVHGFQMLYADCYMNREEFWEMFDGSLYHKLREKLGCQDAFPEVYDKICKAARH

Test [10] addresses Tyrosine-protein kinase CSK (Homo sapiens, UniProt P41240).
For test [11], the target named is Tyrosine-protein kinase ABL2 (Homo sapiens, UniProt P42684).

Active and inactive are the calls of the source. Cut-off read from the data, not from the text of the source, for most assays here: actives have a measured Kd and inactives only a lower limit.
Note: in the data inactive means no Kd found up to 30 µM.

Tyrosine-protein kinase ABL2, sequence (P42684 whole entry): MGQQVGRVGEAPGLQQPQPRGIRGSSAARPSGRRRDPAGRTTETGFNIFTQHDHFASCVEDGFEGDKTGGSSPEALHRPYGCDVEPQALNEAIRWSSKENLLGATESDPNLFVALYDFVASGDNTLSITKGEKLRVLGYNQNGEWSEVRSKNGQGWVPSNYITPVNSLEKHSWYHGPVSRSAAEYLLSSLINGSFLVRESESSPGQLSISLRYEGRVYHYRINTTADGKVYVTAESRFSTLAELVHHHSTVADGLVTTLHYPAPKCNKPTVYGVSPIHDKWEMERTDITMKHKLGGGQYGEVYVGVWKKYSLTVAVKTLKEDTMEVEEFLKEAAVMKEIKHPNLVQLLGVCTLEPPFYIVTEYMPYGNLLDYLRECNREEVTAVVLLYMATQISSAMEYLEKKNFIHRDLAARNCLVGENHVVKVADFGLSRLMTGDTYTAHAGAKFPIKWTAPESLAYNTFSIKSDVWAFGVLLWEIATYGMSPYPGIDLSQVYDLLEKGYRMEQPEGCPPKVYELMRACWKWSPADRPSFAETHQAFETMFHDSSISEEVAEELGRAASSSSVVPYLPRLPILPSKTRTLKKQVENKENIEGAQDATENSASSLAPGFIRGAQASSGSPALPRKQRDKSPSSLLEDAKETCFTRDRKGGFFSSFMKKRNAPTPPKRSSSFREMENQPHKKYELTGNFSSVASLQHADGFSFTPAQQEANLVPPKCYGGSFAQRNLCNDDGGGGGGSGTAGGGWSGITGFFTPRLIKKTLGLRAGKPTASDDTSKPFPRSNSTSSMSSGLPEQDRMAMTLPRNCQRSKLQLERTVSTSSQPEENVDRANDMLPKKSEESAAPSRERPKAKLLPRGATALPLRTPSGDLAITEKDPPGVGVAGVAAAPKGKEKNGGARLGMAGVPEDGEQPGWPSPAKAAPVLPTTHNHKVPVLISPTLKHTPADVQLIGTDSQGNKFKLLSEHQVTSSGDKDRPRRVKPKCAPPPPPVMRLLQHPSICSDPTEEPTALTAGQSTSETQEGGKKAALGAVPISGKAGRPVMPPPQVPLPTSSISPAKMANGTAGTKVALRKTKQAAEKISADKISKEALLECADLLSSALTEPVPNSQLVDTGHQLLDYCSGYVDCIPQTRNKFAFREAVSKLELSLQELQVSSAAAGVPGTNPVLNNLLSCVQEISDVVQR
Tyrosine-protein kinase CSK, sequence (P41240 whole entry): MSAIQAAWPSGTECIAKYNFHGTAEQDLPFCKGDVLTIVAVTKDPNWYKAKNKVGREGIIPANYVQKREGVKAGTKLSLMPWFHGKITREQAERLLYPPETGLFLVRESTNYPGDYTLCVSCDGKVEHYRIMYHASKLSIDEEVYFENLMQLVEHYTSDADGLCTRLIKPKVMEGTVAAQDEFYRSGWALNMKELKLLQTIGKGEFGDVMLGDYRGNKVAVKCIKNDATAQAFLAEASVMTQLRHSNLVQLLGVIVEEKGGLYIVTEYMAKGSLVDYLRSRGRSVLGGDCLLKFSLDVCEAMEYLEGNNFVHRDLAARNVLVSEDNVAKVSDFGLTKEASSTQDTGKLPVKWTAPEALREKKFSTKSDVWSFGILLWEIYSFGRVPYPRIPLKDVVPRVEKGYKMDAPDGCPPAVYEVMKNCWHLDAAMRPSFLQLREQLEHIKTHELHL
Calcium/calmodulin-dependent protein kinase kinase 2, sequence (Q96RR4 whole entry): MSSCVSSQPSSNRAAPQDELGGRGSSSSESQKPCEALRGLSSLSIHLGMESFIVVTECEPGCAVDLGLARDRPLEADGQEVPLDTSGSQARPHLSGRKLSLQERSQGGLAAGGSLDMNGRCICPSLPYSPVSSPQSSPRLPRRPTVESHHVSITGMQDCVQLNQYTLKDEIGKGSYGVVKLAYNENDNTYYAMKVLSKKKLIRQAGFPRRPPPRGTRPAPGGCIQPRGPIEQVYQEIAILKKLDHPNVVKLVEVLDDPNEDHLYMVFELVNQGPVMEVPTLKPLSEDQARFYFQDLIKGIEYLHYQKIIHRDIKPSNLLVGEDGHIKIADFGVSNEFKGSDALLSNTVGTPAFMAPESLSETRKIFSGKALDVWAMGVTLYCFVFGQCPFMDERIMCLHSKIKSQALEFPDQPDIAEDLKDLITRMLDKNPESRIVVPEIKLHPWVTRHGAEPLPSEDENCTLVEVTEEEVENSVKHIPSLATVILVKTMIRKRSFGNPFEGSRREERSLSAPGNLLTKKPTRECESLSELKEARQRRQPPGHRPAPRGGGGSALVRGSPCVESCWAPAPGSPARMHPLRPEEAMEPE
Protein kinase C theta type, sequence (Q04759 whole entry): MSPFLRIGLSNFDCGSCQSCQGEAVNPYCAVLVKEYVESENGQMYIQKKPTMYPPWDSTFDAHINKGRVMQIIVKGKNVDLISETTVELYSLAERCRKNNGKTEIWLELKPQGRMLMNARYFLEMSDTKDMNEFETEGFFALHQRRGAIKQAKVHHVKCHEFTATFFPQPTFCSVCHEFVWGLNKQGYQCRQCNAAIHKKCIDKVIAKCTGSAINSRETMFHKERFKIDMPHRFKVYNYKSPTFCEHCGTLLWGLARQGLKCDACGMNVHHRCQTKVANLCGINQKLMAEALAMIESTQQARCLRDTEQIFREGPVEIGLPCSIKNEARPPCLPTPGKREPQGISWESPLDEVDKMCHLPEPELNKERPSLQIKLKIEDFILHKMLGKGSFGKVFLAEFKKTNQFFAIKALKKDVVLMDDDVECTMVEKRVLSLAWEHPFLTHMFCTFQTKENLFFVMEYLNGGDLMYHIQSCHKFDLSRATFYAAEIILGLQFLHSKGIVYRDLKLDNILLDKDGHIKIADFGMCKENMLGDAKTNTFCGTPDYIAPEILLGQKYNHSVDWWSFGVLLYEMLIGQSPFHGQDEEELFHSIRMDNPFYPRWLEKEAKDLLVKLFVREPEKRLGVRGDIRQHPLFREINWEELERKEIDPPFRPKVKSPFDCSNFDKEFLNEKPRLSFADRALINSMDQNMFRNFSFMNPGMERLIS
Wee1-like protein kinase, sequence (P30291 whole entry): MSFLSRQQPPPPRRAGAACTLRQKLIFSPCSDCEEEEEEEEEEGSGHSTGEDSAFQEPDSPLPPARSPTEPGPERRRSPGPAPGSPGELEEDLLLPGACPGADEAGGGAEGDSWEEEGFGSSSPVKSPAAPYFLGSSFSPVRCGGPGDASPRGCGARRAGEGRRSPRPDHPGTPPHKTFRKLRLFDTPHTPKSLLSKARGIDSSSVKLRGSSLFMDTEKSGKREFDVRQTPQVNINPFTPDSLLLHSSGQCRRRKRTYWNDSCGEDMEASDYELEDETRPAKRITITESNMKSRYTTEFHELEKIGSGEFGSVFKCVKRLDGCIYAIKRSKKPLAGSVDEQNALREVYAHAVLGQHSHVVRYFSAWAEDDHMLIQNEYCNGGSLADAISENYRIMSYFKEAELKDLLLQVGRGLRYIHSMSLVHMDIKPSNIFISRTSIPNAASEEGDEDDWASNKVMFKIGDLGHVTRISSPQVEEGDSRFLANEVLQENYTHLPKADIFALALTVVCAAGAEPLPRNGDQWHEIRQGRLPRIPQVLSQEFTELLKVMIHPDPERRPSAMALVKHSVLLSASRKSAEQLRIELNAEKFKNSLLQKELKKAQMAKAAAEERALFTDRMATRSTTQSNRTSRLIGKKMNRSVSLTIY
Mitogen-activated protein kinase 9, sequence (P45984 whole entry): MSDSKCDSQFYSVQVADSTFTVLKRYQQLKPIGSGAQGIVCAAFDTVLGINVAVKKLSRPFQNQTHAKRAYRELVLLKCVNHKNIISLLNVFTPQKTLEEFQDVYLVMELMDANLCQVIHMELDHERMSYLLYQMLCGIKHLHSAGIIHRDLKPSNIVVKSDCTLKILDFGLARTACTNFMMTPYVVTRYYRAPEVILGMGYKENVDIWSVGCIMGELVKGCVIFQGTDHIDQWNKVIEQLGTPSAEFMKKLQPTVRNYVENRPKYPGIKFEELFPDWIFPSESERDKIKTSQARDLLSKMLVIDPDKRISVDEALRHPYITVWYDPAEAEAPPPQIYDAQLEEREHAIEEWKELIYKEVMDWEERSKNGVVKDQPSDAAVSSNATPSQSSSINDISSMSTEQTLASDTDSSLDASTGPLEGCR

On to `O=C1NC(=O)[C@@H](c2cn3c4c(cccc24)CCC3)[C@@H]1c1c[nH]c2ccccc12` [TIVANTINIB], for which the Kd in test [1], in [2], in test [3], in test [4], in test [5] and in test [6] was > 30 µM (inactive) each time. Further, the Kd (in test [7]; in [8]; at Wee1-like protein kinase; in test [9]; in test [10]; in test [11]) was > 30 µM (inactive) throughout.

For the compound `C[C@@H](NC(=O)c1ncnc(N)c1Cl)c1ncc(C(=O)Nc2cc(C(F)(F)F)c(Cl)cn2)s1` [TOVORAFENIB], the Kd in [1], in test [2], in [3], in test [4], in [5] and in test [6] was > 30 µM (inactive) each time. For the same compound, the Kd in test [7] is > 30 µM (inactive); in test [8] it was > 30 µM (inactive); at Wee1-like protein kinase, 0.252 µM (active); in test [9] it was > 30 µM (inactive); in [10], > 30 µM (inactive); in [11], 0.099 µM (active).

In the case of `C[C@@H](N)c1ccc(C(=O)Nc2ccnc3[nH]ccc23)cc1` [Y-39983], the Kd was 0.106 µM (active) in test [1]; > 30 µM (inactive) in test [2]; > 30 µM (inactive) in test [3]; > 30 µM (inactive) in test [4]; > 30 µM (inactive) in test [5]; 0.09 µM (active) in test [6]. Moreover, the Kd (in [7]; in test [8]; at Wee1-like protein kinase; in test [9]; in test [10]; in test [11]) was > 30 µM (inactive) each time.

For `CN1C/C=C/CCOc2cccc(c2)-c2ccnc(n2)Nc2cccc(c2)C1` [ZOTIRACICLIB], the Kd was > 30 µM (inactive) in test [1]; > 30 µM (inactive) in [2]; > 30 µM (inactive) in test [3]; 2.31 µM (active) in [4]; > 30 µM (inactive) in test [5]; > 30 µM (inactive) in [6]. Besides, the Kd (in [7]; in test [8]; on Wee1-like protein kinase; in test [9]; in test [10]; in test [11]) was > 30 µM (inactive) each time.
